In US9889125B2 (TAKEDA PHARMACEUTICALS U.S.A., INC., priority 2011, dated 2018):
Structures can show the parent of a compound that is named as a salt.

How the values were obtained:
CYP2C19 = molecular target: T1, CYP2C19 (Homo sapiens, UniProt P33261); assay: CYP2C19 inhibition by PPIs
T1 construct: The subject was a CYP2C19 extensive metabolizer (wt/wt); from tissue; host or cells: Liver of healthy study subjects (in vivo), CYP2C19 wt/wt genotype

[1] = PPI 80 mg with clopidogrel 300-mg loading dose and 75 mg/day maintenance dose; healthy subjects; cited from earlier work
[2] = test system: P2Y12 platelet reactivity; assay: Platelet function test: VerifyNow, P2Y12 platelet reactivity unit (PRU); format: in vivo, human; settings: 9 days, 24 Hours Post Day 9 Dose
From the text: (§1) ANOVA models with sequence, subject within sequence, period and regimen were fitted to the pharmacodynamic parameters.

[3] = test system: platelet function (Vasodilator-stimulated phosphoprotein, VASP); assay: Platelet function test: Vasodilator-stimulated phosphoprotein (VASP), platelet reactivity index (PRI); format: in vivo, human; settings: for Difference in the LS-Means of PRI (with PPI vs without PPI): 9 days, 24 hours post Day 9 dose
From the text: as §1

[4] = test system: platelet aggregation with ADP; assay: Platelet function test: Aggregometry with adenosine diphosphate (ADP), maximum platelet aggregation (MPA); format: in vivo, human; settings: for MPA with 5 μM ADP, Mean (SD) / MPA with 20 μM ADP, Mean (SD): 9 days, 24 Hours Post Day 9 Dose
From the text: as §1

[5] = PPI group omeprazole 80 mg: clopidogrel 75 mg QD alone or clopidogrel + PPI
[6] = PPI group dexlansoprazole 60 mg: clopidogrel 75 mg QD alone or clopidogrel + PPI
[7] = PPI group esomeprazole 40 mg: clopidogrel 75 mg QD alone or clopidogrel + PPI
[8] = PPI group lansoprazole 30 mg: clopidogrel 75 mg QD alone or clopidogrel + PPI
[9] = clopidogrel with lansoprazole 30 mg vs clopidogrel alone
[10] = clopidogrel with dexlansoprazole 60 mg vs clopidogrel alone

T1 sequence (P33261 whole entry): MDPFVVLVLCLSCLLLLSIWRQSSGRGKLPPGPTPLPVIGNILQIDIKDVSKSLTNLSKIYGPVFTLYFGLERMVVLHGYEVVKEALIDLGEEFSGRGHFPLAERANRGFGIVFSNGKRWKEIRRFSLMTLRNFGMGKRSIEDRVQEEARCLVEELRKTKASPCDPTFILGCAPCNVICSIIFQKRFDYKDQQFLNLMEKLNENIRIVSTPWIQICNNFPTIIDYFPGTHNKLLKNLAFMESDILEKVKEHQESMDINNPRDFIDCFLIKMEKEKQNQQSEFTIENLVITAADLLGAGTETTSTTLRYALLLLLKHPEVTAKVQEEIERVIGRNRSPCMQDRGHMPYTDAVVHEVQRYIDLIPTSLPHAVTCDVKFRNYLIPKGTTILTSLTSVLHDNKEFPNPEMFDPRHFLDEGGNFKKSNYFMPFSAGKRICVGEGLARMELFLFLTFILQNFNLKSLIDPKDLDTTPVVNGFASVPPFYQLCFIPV

Compound: COc1ccc2[nH]c([S+]([O-])Cc3ncc(C)c(OC)c3C)nc2c1 (stereo not drawn) [Omeprazole]
- CYP2C19 inhibition (strength of inhibitor) (CYP2C19): potent CYP2C19 inhibitors
- metabolic DDI with clopidogrel [1]: a metabolic DDI was found to exist
- PRU, Mean (SD) [2, 5]: 201.5 (59.65) %
- Difference in the LS-Means of PRI (with PPI vs without PPI) ([3]; clopidogrel 75 mg QD with vs without omeprazole 80 mg QD): 11.0407
- MPA with 5 μM ADP, Mean (SD) [4, 5]: 42.5 (14.74) %
- MPA with 20 μM ADP, Mean (SD) [4, 5]: 53.5 (13.75) %

Compound: COC(=O)[C@H](c1ccccc1Cl)N1CCc2sccc2C1 [Clopidogrel, methyl (+)-(S)-α-(2-chlorophenyl)-6,7-dihydrothieno[3,2-c]pyridine-5 (4H)-acetate sulfate (1:1)]
- PRU, Mean (SD) [2, 6]: 124.2 (79.10) %
- PRU, Mean (SD) [2, 7]: 121.1 (50.64) %
- PRU, Mean (SD) [2, 8]: 114.9 (56.44) %
- PRU, Mean (SD) [2, 5]: 133.0 (67.62) %
- MPA with 5 μM ADP, Mean (SD) [4, 6]: 34.6 (14.23) %
- MPA with 20 μM ADP, Mean (SD) [4, 6]: 43.1 (13.24) %
- MPA with 5 μM ADP, Mean (SD) [4, 7]: 29.3 (10.41) %
- MPA with 20 μM ADP, Mean (SD) [4, 7]: 39.3 (13.22) %
- MPA with 5 μM ADP, Mean (SD) [4, 8]: 28.1 (6.76) %
- MPA with 20 μM ADP, Mean (SD) [4, 8]: 36.7 (9.11) %
- MPA with 5 μM ADP, Mean (SD) [4, 5]: 34.2 (12.32) %
- MPA with 20 μM ADP, Mean (SD) [4, 5]: 43.5 (14.00) %

Compound: COc1ccc2nc([S@@+]([O-])Cc3ncc(C)c(OC)c3C)[nH]c2c1 [Esomeprazole]
- CYP2C19 inhibition (strength of inhibitor) (CYP2C19): potent CYP2C19 inhibitors
- PRU, Mean (SD) [2, 7]: 177.6 (55.37) %
- Difference in the LS-Means of PRI (with PPI vs without PPI) ([3]; clopidogrel 75 mg QD with vs without esomeprazole 40 mg QD): 11.4437
- effect on clopidogrel PD in terms of PRI (90% CI of LS-Mean difference against 15% boundary) ([3]; clopidogrel with esomeprazole 40 mg vs clopidogrel alone): very similar to omeprazole 80 mg
- MPA with 5 μM ADP, Mean (SD) [4, 7]: 38.2 (17.77) %
- MPA with 20 μM ADP, Mean (SD) [4, 7]: 47.9 (15.77) %

Compound: Cc1c(OCC(F)(F)F)ccnc1C[S+]([O-])c1nc2ccccc2[nH]1 (stereo not drawn) [Lansoprazole]
- CYP2C19 inhibition (strength of inhibitor) (CYP2C19): weak CYP2C19 inhibitors
- PRU, Mean (SD) [2, 8]: 131.8 (71.27) %
- Difference in the LS-Means of PRI (with PPI vs without PPI) ([3]; clopidogrel 75 mg QD with vs without lansoprazole 30 mg QD): 4.1016
- effect on clopidogrel PD in terms of PRI (90% CI of LS-Mean difference against 15% boundary) [3, 9]: equivalence in PD was demonstrated
- increase in mean PRI [3, 9]: 4.1%
- MPA with 5 μM ADP, Mean (SD) [4, 8]: 30.8 (9.35) %
- MPA with 20 μM ADP, Mean (SD) [4, 8]: 41.6 (12.65) %

Compound: Cc1c(OCC(F)(F)F)ccnc1C[S@@+]([O-])c1nc2ccccc2[nH]1 [Dexlansoprazole]
- CYP2C19 inhibition (strength of inhibitor) (CYP2C19): weak CYP2C19 inhibitors
- PRU, Mean (SD) [2, 6]: 146.7 (84.45) %
- Difference in the LS-Means of PRI (with PPI vs without PPI) ([3]; clopidogrel 75 mg QD with vs without dexlansoprazole 60 mg QD): 2.0474
- effect on clopidogrel PD in terms of PRI (90% CI of LS-Mean difference against 15% boundary) [3, 10]: equivalence in PD was demonstrated
- increase in mean PRI [3, 10]: 2.0%
- MPA with 5 μM ADP, Mean (SD) [4, 6]: 36.2 (16.87) %
- MPA with 20 μM ADP, Mean (SD) [4, 6]: 46.3 (16.93) %
- difference in MPA compared with clopidogrel alone, statistical significance ([4]; clopidogrel with dexlansoprazole 60 mg, either MPA (5 and 20 μM ADP)): not statistically significant
